These results are taken from patent US20140228407A1, “TETRA-PYRIDINE COMPOUNDS AND COMPOSITION FOR PROTECTING CELLS, TISSUES AND ORGANS AGAINST ISCHEMIA-REPERFUSION INJURY” (YISSUM RESEARCH DEVELOPMENT COMPANY OF THE HEBREW …, priority 2011, published 2014).

Structures are written as SMILES. Marks after values point to notes of the source that are not given here.

This assay has as its system model of ischemia/reperfusion in the CD rat. The experiment in a line: Rat model of ischemia/reperfusion, infarct analysis (Phase B). Type of assay: in vivo. Particulars: for Infarct/AAR (%) Mean: 4 hour reperfusion; for Infarct/AAR (%) Mean / Infarct/LV (%) Mean: rat. The protocol: This study was conducted to evaluate the effects of the Compound #6 on cardiac function, infarct size, and Troponin I levels in a model of ischemia/reperfusion in the CD® (CR1CD® (SD)) rat. Phase A was conducted for toxicity evaluation purposes. In Phase B (the efficacy phase), two treatment groups of eight male rats were administered Compound #6 at dose levels of 0.2 and 2 mg/kg via intravenous infusion following myocardial infarction. The 2 mg/kg dose of Compound #6 was administered intravenously via a slow infusion starting 3 to 14 minutes prior to reperfusion and continuing for 20 minutes to 20 minutes and 32 seconds, which was approximately 6 to 17 minutes after reperfusion (depending on the infusion start time). The 0.2 mg/kg dose of Compound #6 was administered intravenously via a slow infusion starting 10 minutes prior to reperfusion and continuing for 30 minutes to 30 minutes and 30 seconds, which was approximately 20 minutes after reperfusion.
The animals were placed on mechanical ventilation and […]. Once anesthetized, the animal was placed in a right lateral recumbency, an arterial catheter or polyethylene tube was placed in the carotid artery for monitoring blood pressure and a thoracotomy was performed. The left coronary artery (LCA) was identified. A ligature was placed around the LCA and the vessel was ligated. The LCA was maintained occluded for 29 to 43 minutes. Occlusion of the vessel was verified via blanching of the heart and via ST interval changes. At the end of the occlusion period, the knot was loosened leaving the ligature in place, and the vessel was allowed to reperfuse for 3 hours 27 minutes to 4 hours 51 minutes. Following infarct, a chest tube was placed, the deep and superficial muscle layers were sutured at the surgical incision, and the skin was closed with staples. The chest tube was removed after spontaneous respiration was established. In Phase A, the animals were recovered from anesthesia and evaluated for 4 days. In Phase B, animals were maintained under anesthesia for 3 hours 27 minutes to 4 hours 51 minutes prior to being submitted to necropsy.
In Phase B, Compound #6 was administered once on Day 0 via intravenous infusion at dose levels of 0.2 and 2 mg/kg. The doses were administered at a dose volume of 1 mL/kg (0.05 [2 mg/kg] or 0.033 [0.2 mg/kg] mL/kg/minute). Two control groups received the vehicle (saline) or the vehicle for Compound #6 (10% (w/v) 2-hydroxypropyl-beta-cyclodextrin and 100 mM sodium chloride in deionized water) in the same manner as the 2 mg/kg treated group. The vehicles and 2 mg/kg Compound #6 were administered intravenously via a slow infusion starting 3 to 14 minutes prior to reperfusion and continuing for 20 minutes to 20 minutes and 32 seconds, which was approximately 6 to 17 minutes after reperfusion (depending on the infusion start time). The 0.2 mg/kg Compound #6 was administered intravenously via a slow infusion starting 10 minutes prior to reperfusion and continuing for 30 minutes to 30 minutes and 30 seconds, which was approximately 20 minutes after reperfusion. The positive control article, Erythropoietin, was administered at 5000 IU/kg via a bolus intravenous injection. The positive control article dose was administered at a dose volume of 2.5 mL/kg. The positive control was administered via a 3 to 60 second injection at 5 minutes prior to reperfusion.
After LAD reperfusion (4 hours), the animals were euthanized by an intraperitoneal injection of sodium pentobarbital followed by exsanguination via severing the abdominal vena cava. The heart was flushed with heparinized Lactated Ringers Solution (LRS) until clear of blood and the LAD was tied off using the same ligature used to occlude the vessel and Evan Blue dye was injected. The heart was weighed and breadloafed (4-5 sections per animal). […]

Take `Cc1ccc(CN(CCN(Cc2ccc(C)cn2)Cc2ccc(C)cn2)Cc2ccc(C)cn2)nc1` [Compound #6]: the “Infarct/AAR (%) Mean” value runs as follows: (0.2 mg/kg intravenous infusion) 22.2±5.24%; (0.2 mg/kg intravenous infusion, listed as Comp #6) 22^b %; (2 mg/kg intravenous infusion) 19.1±7.38%; (2 mg/kg intravenous infusion, listed as Comp #6) 19^b %. Further, the “Infarct/LV (%) Mean” value is 7% (0.2 mg/kg intravenous infusion) and 7% (2 mg/kg intravenous infusion). The “infarct size following ischemia-reperfusion injury, in words” value (either 0.2 or 2.0 mg/kg IV as an infusion, 30 minute ischemia, vs saline and vehicle controls) is listed as “significant decrease in infarct size”.
